Among the data in patent publication US11242312B2, “Dipeptidyl ketoamide meta-methoxyphenyl derivatives and uses thereof” (LANDSTEINER GENMED, S.L., priority 2018, dated 2022) are IC50 values, retold here.

The target of the assay is calpain 1 (Homo sapiens (Human), UniProt P07384). Briefly: Assay for the determination of the capacity to inhibit calpain 1 (Calpain-Glo Protease kit). The assay is classed as biochemical. Particulars: Calpain-Glo luminescence; 16 ng/mL calpain 1; at least 6 concentrations; read-out: Calpain 1 inhibitory activity IC50. How it is done: Assay for the Determination of the Capacity to Inhibit Calpain 1
Activity of Calpain 1 was measured by using Calpain-Glo Protease kit from Promega. Assays were run in 384-well black plates with clear bottom. 5 μl of compounds in a 10 mM HEPES and 1 mM EDTA aqueous solution were incubated with 15 μL of a solution of 16 ng/mL calpain 1 (Sigma Aldrich) for 2 minutes and then 20 μL of Calpain-Glo™ Reagent provided in the kit were added to each well. Luminiscence elicited by calpain 1-induced substrate lysis was measured in a Hamamatsu FDSS 7000 reader and data was calculated from the maximal luminescence peak. Calpain inhibition was calculated from the formula: % inhibition=[…]; wherein LT is the luminescence observed in the tested compound, LB is blank luminescence obtained from a well without calpain 1 and LC is the luminescence observed in control wells including calpain1 in the absence of inhibitor.
All compounds were tested using, at least, 6 concentrations to allow calculate the IC50 (concentration that inhibits the activity of calpain 1 by 50%).
Calpastatin and ALLN were included as control inhibitors in all the assays.

calpain 1, sequence (P07384 whole entry): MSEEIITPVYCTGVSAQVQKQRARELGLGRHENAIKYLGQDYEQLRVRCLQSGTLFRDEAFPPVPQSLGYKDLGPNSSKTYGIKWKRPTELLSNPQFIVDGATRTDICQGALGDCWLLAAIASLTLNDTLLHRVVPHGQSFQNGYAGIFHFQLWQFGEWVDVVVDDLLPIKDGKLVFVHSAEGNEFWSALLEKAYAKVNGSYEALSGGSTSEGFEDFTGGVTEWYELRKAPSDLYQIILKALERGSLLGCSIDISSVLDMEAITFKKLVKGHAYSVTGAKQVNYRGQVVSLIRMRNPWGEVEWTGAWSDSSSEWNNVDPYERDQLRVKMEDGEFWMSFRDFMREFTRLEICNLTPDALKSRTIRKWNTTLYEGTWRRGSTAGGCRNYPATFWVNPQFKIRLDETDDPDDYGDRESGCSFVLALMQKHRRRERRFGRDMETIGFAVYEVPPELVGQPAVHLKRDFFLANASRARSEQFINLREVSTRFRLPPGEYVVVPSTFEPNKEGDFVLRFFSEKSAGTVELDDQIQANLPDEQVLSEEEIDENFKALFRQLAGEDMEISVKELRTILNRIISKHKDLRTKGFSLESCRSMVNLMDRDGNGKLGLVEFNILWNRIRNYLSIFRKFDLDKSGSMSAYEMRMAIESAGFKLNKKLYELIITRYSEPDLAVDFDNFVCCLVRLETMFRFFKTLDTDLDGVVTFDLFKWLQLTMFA
calpain 1, sequence (P04632 whole entry partner): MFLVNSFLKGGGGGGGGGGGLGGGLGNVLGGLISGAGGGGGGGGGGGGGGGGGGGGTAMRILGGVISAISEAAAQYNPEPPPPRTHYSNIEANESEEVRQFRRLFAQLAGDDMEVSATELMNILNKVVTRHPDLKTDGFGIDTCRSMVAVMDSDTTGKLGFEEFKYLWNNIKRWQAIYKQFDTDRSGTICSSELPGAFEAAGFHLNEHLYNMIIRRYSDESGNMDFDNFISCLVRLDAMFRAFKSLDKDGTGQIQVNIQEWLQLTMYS

Take `COc1ccc(C(=O)N[C@@H](CC(C)C)C(=O)N[C@@H](Cc2ccccc2)C(=O)C(=O)NC2CC2)cc1` [Comp. Example 5, N-((S)-1-(((S)-4-(cyclopropylamino)-3,4-dioxo-1-phenylbutan-2-yl)amino)-4-methyl-1-oxopentan-2-yl)-4-methoxybenzamide, reference compound]: the IC50 stood at 255 nM. Consider `COc1ccccc1C(=O)N[C@@H](CC(C)C)C(=O)N[C@@H](Cc1ccccc1)C(=O)C(=O)NC1CC1` [Comp. Example 6, N-((S)-1-(((S)-4-(cyclopropylamino)-3,4-dioxo-1-phenylbutan-2-yl)amino)-4-methyl-1-oxopentan-2-yl)-2-methoxybenzamide, reference compound], for which the IC50 stood at 110 nM. For `COc1cccc(C(=O)N[C@@H](CC(C)C)C(=O)N[C@@H](Cc2ccccc2)C(=O)C(=O)NC2CC2)c1` [Example 1, N-((S)-1-(((S)-4-(cyclopropylamino)-3,4-dioxo-1-phenylbutan-2-yl)amino)-4-methyl-1-oxopentan-2-yl)-3-methoxybenzamide], the IC50 is 0.03 nM.

For the molecule `COc1cccc(C(=O)N[C@H](C(=O)NC(Cc2ccccc2)C(=O)C(=O)NC2CC2)C(C)C)c1` (stereo partly drawn) [Example 2, N-((S)-1-((4-(cyclopropylamino)-3,4-dioxo-1-phenylbutan-2-yl)amino)-3-methyl-1-oxobutan-2-yl)-3-methoxybenzamide], the 50% inhibitory concentration (IC50) worked out at 2.2 nM. On to `COc1cccc(C(=O)N[C@@H](CC2CC2)C(=O)NC(Cc2ccccc2)C(=O)C(=O)NC2CC2)c1` (stereo partly drawn) [Example 3, N-((S)-3-cyclopropyl-1-((4-(cyclopropylamino)-3,4-dioxo-1-phenylbutan-2-yl)amino)-1-oxopropan-2-yl)-3-methoxybenzamide], for which the concentration for half-maximal inhibition (IC50) was determined as 0.008 nM.

For the molecule `CONC(=O)C(=O)C(Cc1ccccc1)NC(=O)[C@H](CC1CC1)NC(=O)c1cccc(OC)c1` (stereo partly drawn) [Example 4, N-((S)-3-cyclopropyl-1-((4-(methoxyamino)-3,4-dioxo-1-phenylbutan-2-yl)amino)-1-oxopropan-2-yl)-3-methoxybenzamide], the 50% inhibitory concentration (IC50) stood at 7.1 nM.

As usually defined, the IC50 is the concentration at which inhibition is half-maximal.
